Values of other authors as cited in patent US10722516B2, “Use of landiolol hydrochloride in the long-term treatment of tachyarrhythmias” (AOP Orphan Pharmaceuticals AG, priority 2013, dated 2020).
Structures can show the parent of a compound that is named as a salt.

Conditions: in vivo; cited from earlier work

COC(=O)CCc1ccc(OCC(O)CNC(C)C)cc1 (stereo not drawn) [Esmolol, Esmolol hydrochloride]
alpha-distribution half-life: approximately 2 minutes
total body clearance relative to cardiac output: ~3 times
total body clearance relative to hepatic blood flow: ~14 times
